Data reported in US20240238265A1 (priority 2020, published 2024).

How the values were obtained:
in vitro = details: African green monkey
[1] = 1 h, pH 7.4
SUDV-Gulu = assay: microbe, parasite or virus in culture; type: cell-based, Sudan virus (SUDV)
[2] = tested on: pseudotyped VSV expressing EBOV glycoprotein; assay: microbe, parasite or virus in culture; type: cell-based, Ebola virus (EBOV); details: Zaire ebolavirus, Vero, 24 h, read-out: EC50 (uM) Pseudotype Assays EBOV
[3] = tested on: pseudotyped VSV expressing SUDV glycoprotein; assay: microbe, parasite or virus in culture; type: cell-based, Sudan virus (SUDV); details: Vesicular stomatitis virus, Vero, 24 h, read-out: EC50 (uM) Pseudotype Assays SUDV
[4] = 1 h, pH 7.4; remark: listed apart in the source
[5] = 1 h, pH 7.4; remark: listed apart in the source
EBOV-Zaire = assay: microbe, parasite or virus in culture; type: cell-based, Ebola virus (EBOV)
[6] = 1 h, pH 7.4; remark: listed apart in the source
[7] = 1 h, pH 7.4; remark: listed apart in the source
[8] = tested on: pseudotyped VSV expressing BDBV glycoprotein; assay: microbe, parasite or virus in culture; type: cell-based, Bundibugyo virus (BDBV); details: Vesicular stomatitis virus, Vero, 24 h, read-out: EC50 (uM) Pseudotype Assays BDBV
[9] = 1 h, pH 7.4; remark: listed apart in the source
[10] = tested on: pseudotyped VSV expressing MARV glycoprotein; assay: microbe, parasite or virus in culture; type: cell-based, Marburg virus (MARV); details: Vesicular stomatitis virus, Vero, 24 h, read-out: EC50 (uM) Pseudotype Assays MARV
WT EBOV-Mayinga = assay: microbe, parasite or virus in culture; type: cell-based, Ebola virus (EBOV)
EBOV (strain kikwit) = assay: microbe, parasite or virus in culture; type: cell-based, Ebola virus (EBOV)
SUDV (strain Gulu) = assay: microbe, parasite or virus in culture; type: cell-based, Sudan virus (SUDV)

Row | Compound | CC50 (in vitro) [nM] | Percent parent compound remaining at 60 minutes in liver microsomes, Monkey [1] [%] | EC50 [2] [µM] | EC50 [3] [µM] | Percent parent compound remaining at 60 minutes in liver microsomes, Guinea Pig [4] [%] | Percent parent compound remaining at 60 minutes in liver microsomes, Human [5] [%] | Percent parent compound remaining at 60 minutes in liver microsomes, Dog [6] [%] | Percent parent compound remaining at 60 minutes in liver microsomes, Mouse [7] [%] | EC50 [8] [µM] | Percent parent compound remaining at 60 minutes in liver microsomes, Rat [9] [%] | EC50 [10] [µM] | further results
1 | CCC=C1C2CC3(C(=S)N[C@H]4CC[C@H](N)CC4)CC1CC(c1ccccc1)(C2)C3 (relative stereo) [Example D2, trans-N-(4-aminocyclohexyl)-3-phenyl-6-propylideneadamantane-1-carbothioamide] | 1780 | 100 | 0.051 | 0.072 | 100 | 100 | – | – | – | – | – | SUDV-Gulu SI50 (CC50/EC50) (SUDV-Gulu): 78; EC50 (SUDV-Gulu; Sudan ebolavirus, Vero, read-out: SUDV-Gulu EC50 (uM)): 0.11 µM; EBOV-Zaire SI50 (CC50/EC50) (EBOV-Zaire): 3.3; EC50 (EBOV-Zaire; Zaire ebolavirus, Vero, read-out: EBOV-Zaire EC50 (uM)): 2.6 µM
2 | CC1C2CC3(C(=O)N[C@H]4CC[C@H](N)CC4)CC1CC(c1ccccc1)(C2)C3 (stereo partly drawn) [Example F1, trans-N-(4-aminocyclohexyl)-6-methyl-3-phenyladamantane-1-carboxamide] | 13300 | 92 | 0.027 | 0.21 | 79 | 91 | 82 | 83 | 0.065 | 99 | > 3 | –
3 | CCC1C2CC3(C(=O)N[C@H]4CC[C@H](N)CC4)CC1CC(c1ccccc1)(C2)C3 (stereo partly shown) [Example F2] | 12600 | 100 | 0.011 | 0.27 | 68 | 85 | 80 | 48 | 0.03 | 86.5 | 3.1 | WT EBOV-Mayinga SI50 (CC50/EC50) (WT EBOV-Mayinga): 706.84; WT EBOV-Mayinga SI90 (CC50/EC90) (WT EBOV-Mayinga): 209.99; EC50 (WT EBOV-Mayinga; Zaire ebolavirus, read-out: WT EBOV-Mayinga EC50 (uM)): 0.014 µM; EC90 (WT EBOV-Mayinga; Zaire ebolavirus, read-out: WT EBOV-Mayinga EC90 (uM)): 0.048 µM; EBOV-Kikwit SI50 (CC50/EC50) (EBOV (strain kikwit)): 90.33; EC50 (EBOV (strain kikwit); Zaire ebolavirus, HeLa, read-out: EBOV-Kikwit EC50 (uM)): 0.11 µM; SUDV-Gulu SI50 (CC50/EC50) (SUDV (strain Gulu)): 291.26; EC50 (SUDV (strain Gulu); Sudan ebolavirus, HeLa, read-out: SUDV-Gulu EC50 (uM)): 0.039 µM
